These results are taken from patent US20120178147A1, “MICROBIAL CULTURES AND METHODS FOR ANAEROBIC BIOREMEDIATION” (priority 2009, published 2012).

The structures appear in SMILES notation. Like-named read-outs stand apart in the source and are kept apart here.

For data set [1] the following is noted: cited from earlier work.
In the next data set the test system is Dehalococcoides. Description: qRT-PCR of Dehalococcoides 16S rRNA genes in BDI cultures. The class given is cell-based. Particulars: for effect on growth of Dehalococcoides in BDI cultures: 1.5 μM TCC or 35 μM TCS; for Dehalococcoides 16S rRNA gene copies, day 27 / Dehalococcoides 16S rRNA gene copies, initial: BDI with 1.5 μM TCC or 35 μM TCS. Here is the method:
Quantitative real-time PCR (qRT-PCR) was performed for enumeration of general 16S rRNA genes and Dehalococcoides 16S rRNA genes in culture DehaloR̂2 and Bio-Dechlor INOCULUM. The primers used for general 16S rRNA genes were Bac1055F (5′-ATG GYT GTC GTC ACCT-3′) and Bac1392R (5′-ACG GGC GGT GTG TAC-3′) (Ritalahti et al., 2006), and the probe was Bac16sTaq (FAM-CAA CGA GCG CAA CCC/3-BHQ-1/). The final volume of PCR reactions was 10 μL, and the final concentration of each chemical in a single reaction tube was: 1× RealMasterMix (Fisher Scientific, Pittsburgh, Pa.), 300 nM Probe, 300 nM each Primer, and 130 nM DNA samples. The PCR conditions were as follows: 2 min at 95° C. followed by 40 cycles of 10 s at 95° C., 20 s at 56° C. and 20 s at 68° C. The primers used for Dehalococcoides 16S rRNA genes were Dhc1200F (5′-CTGGAGCTAATCCCCAAAGCT-3′) and Dhc1271R (5′-CAA CTT CAT GCA GGC GGG-3′), and the probe was Dhc1240Pr (FAM-TCCTCAGTTCGGATTGCAGGC TGAA/3-BHQ-1) (He et al., 2003b). The final volume of PCR reactions was 10 μL, and the final concentration of each chemical in a single reaction tube was: 1× RealMasterMix (Fisher Scientific, Pittsburgh, Pa.), 200 nM Probe, 700 nM each Primer, and 130 nM DNA samples. The PCR conditions were as follows: 2 min at 95° C. followed by 40 cycles of 15 s at 95° C., 20 s at 58° C. and 20 s at 68° C.
Quantitative Real time PCR (qRT-PCR) was carried out in a spectrofluorimetric thermal cycler (Master cycler, epgradient S, Eppendorf). Calibration curves were performed in triplicate and a linear range of 6 orders of magnitude was obtained. Plasmids containing Dehalococcoides strain BAV1 16S rRNA genes were used as standards to construct general 16S rRNA genes and Dehalococcoides 16S rRNA genes calibration curves. The slopes of the calibration curves for general 16S rRNA genes and Dehalococcoides 16S rRNA genes were −3.46 and −3.94, and the Y intercepts were 38 and 44.2, respectively.
DNA Extraction and Quantitative Real-Time PCR. The BDI cultures and DehaloR^2 cultures were shaken vigorously first and then 10 ml of the mixed liquid was removed with a sterile syringe and dispensed into 10 1.5 ml micro centrifuge tubes. These micro centrifuge tubes were then centrifuged at 13,000 rpm for 15 min in order to make a pellet, and the pellet was used for DNA extraction. Qiagen DNeasy Blood & Tissue Kit with modifications to enhance lysis was used for DNA isolation from cultures. DNA samples were stored at −20° C.
Quantitative real-time PCR (qRT-PCR) was performed for enumeration of general 16S rRNA genes and Dehalococcoides 16S rRNA genes in BDI culture without TCC&TCS, BDI culture with 1.5 μM TCC, BDI culture with 35 μM TCS, D DehaloR̂2 culture without TCC&TCS, DehaloR^2 culture with 1.5 μM TCC and DehaloR̂2^2 culture with 35 μM TCS.
The primers used for Dehalococcoides 16S rRNA genes were Dhc1200F (5′-[…]-3′) and Dhc1271R (5′-CAACTTCATGCAGGCGGG-3′), and the probe was Dhc1240Pr (FAM-[…]/3-BHQ-1) (He et al., 2003b). The final volume of PCR reactions was 10 μL, and the final concentration of each chemical in a single reaction tube was: 1× RealMasterMix (Fisher Scientific, Pittsburgh, Pa.), 200 nM Probe, 700 nM each Primer, and 130 nM DNA samples. The PCR conditions were as follows: 2 min at 95° C. followed by 40 cycles of 15 s at 95° C., 20 s at 58° C. and 20 s at 68° C.
The qRT-PCR was carried out in a spectrofluorimetric thermal cycler (Master cycler, epgradient S, Eppendorf). Calibration curves were performed in triplicate and a linear range of 6 orders of magnitude was obtained. Plasmids containing Dehalococcoides strain BAV1 16S rRNA genes were used as standards to construct general 16S rRNA genes and Dehalococcoides 16S rRNA genes calibration curves. The slopes of the calibration curves for general 16S rRNA genes and Dehalococcoides 16S rRNA genes were −3.46 and −3.94, and the Y intercepts were 38 and 44.2, respectively.

The conditions of data set [2]: anaerobic conditions, within 70 days; cited from earlier work.
Setting [3] is: at 25° C., table values calculated using PBT Profiler and ECOSAR.

Turning to `O=C(Nc1ccc(Cl)cc1)Nc1ccc(Cl)c(Cl)c1` [TCC, 3-(4-chlorophenyl)-1-(3,4-dichlorphenyl) urea], the Water solubility is 0.05 µg/mL in data set [1] (at 20° C.); 0.65 µg/mL in data set [1] (setting [3]); 0.65 to 1.55 µg/mL in data set [1] (at 25° C., table values calculated using PBT Profiler and ECOSAR, listed as Triclocarban). Also, the “effect on growth of Dehalococcoides in BDI cultures” value with Dehalococcoides is on record as “significantly inhibited the growth of Dehalococcoides”. In addition, the “Dehalococcoides 16S rRNA gene copies, day 27” value in the data set with Dehalococcoides is reported as 1.9×10^7 gene copies/ml. The “Dehalococcoides 16S rRNA gene copies, initial” value with Dehalococcoides is listed as 6.1×10^7 gene copies/ml. The biodegradation in soil entry in data set [2] is “little biodegradation”.

As to `Oc1cc(Cl)ccc1Oc1ccc(Cl)cc1Cl` [TCS, 5-chloro-2-[2,4-dichloro-phenoxy]-phenol], in data set [1] (at 20° C.), the Water solubility was below 1 µg/mL. In addition, the Water solubility in data set [1] (setting [3]) is 4.6 µg/mL. In addition, the Water solubility in data set [1] (at 25° C., table values calculated using PBT Profiler and ECOSAR, listed as Triclosan) is 1.97 to 4.62 µg/mL. Besides, in the data set with Dehalococcoides, the “effect on growth of Dehalococcoides in BDI cultures” value is on record as “significantly inhibited the growth of Dehalococcoides”; the “Dehalococcoides 16S rRNA gene copies, day 27” value is 9.4×10^6 gene copies/ml; the “Dehalococcoides 16S rRNA gene copies, initial” value was 8.9×10^7 gene copies/ml. The biodegradation in soil result in data set [2] is listed as “little biodegradation”.
